Source: US20130209446A1, “Copy Number Variant-Dependent Genes As Diagnostic Tools, Predictive Biomarkers And Therapeutic Targets” (Board of Trustees of the University of Arkansas, priority 2010, published 2013)

What was measured:
Experiment in all cases: MTT cell proliferation assay, PU-H71 titration
Type in all cases: cell-based
KMS28BM = conditions: Homo sapiens, KMS-28BM, KMS28BM myeloma cell line, 72 hours, without thrombin
Experimental: (§1) Cell growth inhibition of an anticancer agent (PU-H71) (6) was tested in a panel of myeloma cell lines. HMCLs were treated with a titration of the anti-cancer reagent PU-H71 (0 to 4,000 nM) in vitro for 72 hours. The MTT assay was utilized to detect proliferation of each cell line. The half maximal inhibitory concentration (IC50) of PU-H71 was calculated using OriginPro 7.5 statistic software.

U266 = conditions: Homo sapiens, U-266, U266 myeloma cell line, 72 hours, without thrombin
Experimental: as §1

JJN3 = conditions: Homo sapiens, JJN-3, JJN3 myeloma cell line, 72 hours, without thrombin
Experimental: as §1

ARK = conditions: Homo sapiens, ARK myeloma cell line, 72 hours, without thrombin
Experimental: as §1

KMS28PE = conditions: Homo sapiens, KMS-28PE, KMS28PE myeloma cell line, 72 hours, without thrombin
Experimental: as §1

OPM2 = conditions: Homo sapiens, OPM-2, OPM2 myeloma cell line, 72 hours, without thrombin
Experimental: as §1

MM144 = conditions: Homo sapiens, MM144 myeloma cell line, 72 hours, without thrombin
Experimental: as §1

L363 = conditions: Homo sapiens, L-363, L363 myeloma cell line, 72 hours, without thrombin
Experimental: as §1

H929 = conditions: Homo sapiens, NCI-H929, H929 myeloma cell line, 72 hours, without thrombin
Experimental: as §1

OCI-MY5 = conditions: Homo sapiens, OCI-MY5 myeloma cell line, 72 hours, without thrombin
Experimental: as §1

INA6 = conditions: Homo sapiens, INA-6, INA6 myeloma cell line, 72 hours, without thrombin
Experimental: as §1

XG1 = conditions: Homo sapiens, XG1 myeloma cell line, 72 hours, without thrombin
Experimental: as §1

RPMI8226 = conditions: Homo sapiens, RPMI-8226, RPMI8226 myeloma cell line, 72 hours, without thrombin
Experimental: as §1

- IC50 (U266): 198 nM
- IC50 (MM144): 306 nM
- IC50 (H929): 210 nM
- IC50 (OCI-MY5): 164 nM
- IC50 (RPMI8226): 485 nM
Compound: CC(C)NCCCn1c(Sc2cc3c(cc2I)OCO3)nc2c(N)ncnc21 [PU-H71]
- IC50 (KMS28BM): 164 nM
- IC50 (JJN3): 800 nM
- IC50 (ARK): 339 nM
- IC50 (KMS28PE): 344 nM
- IC50 (OPM2): 415 nM
- IC50 (L363): 232 nM
- IC50 (INA6): 141 nM
- IC50 (XG1): 238 nM
